Source: the supplement of paper PMC10307832

Assays:
Test in all cases: relative viability (nuclei count vs DMSO), 5 days (fraction); higher = more cells survive
XMD13-2 + OSI-027 = compound: C1CC1C(=O)NC2=NNC3=C2C=CC(=C3)C4=CC(=CC=C4)C(=O)NC5CC5 [XMD13-2] + COc1cccc2cc(-c3nc([C@H]4CC[C@H](C(=O)O)CC4)n4ncnc(N)c34)[nH]c12 [OSI-027] (partner 0.5 µM)
Outline: (§1)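 Lung cancer cell lines, seeded in 1536-well plates, were treated the following day by pin tool with a single drug or with five library-drug doses (not always all listed) in √10 steps on top of a fixed anchor-drug dose. Cells were fixed and nuclei stained in one step after 5 days, and nuclei were counted. Relative viability is the nuclei count for treated wells divided by that for vehicle wells, reported as medians of duplicate plates.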

XMD13-2 + Decitabine = compound: C1CC1C(=O)NC2=NNC3=C2C=CC(=C3)C4=CC(=CC=C4)C(=O)NC5CC5 [XMD13-2] + Nc1ncn([C@H]2C[C@H](O)[C@@H](CO)O2)c(=O)n1 [Decitabine] (partner 2 µM)
Outline: as §1

ALW-II-49-7 + Pemetrexed = compound: Cc1ccc(C(=O)Nc2cccc(C(F)(F)F)c2)cc1Nc1cncc(C(N)=O)c1 [ALW-II-49-7] + Nc1nc2[nH]cc(CCc3ccc(C(=O)N[C@@H](CCC(=O)O)C(=O)O)cc3)c2c(=O)[nH]1 [Pemetrexed] (partner 0.2 µM)
Outline: as §1

Dasatinib + OSI-027 = compound: Cc1nc(Nc2ncc(C(=O)Nc3c(C)cccc3Cl)s2)cc(N2CCN(CCO)CC2)n1 [Dasatinib] + COc1cccc2cc(-c3nc([C@H]4CC[C@H](C(=O)O)CC4)n4ncnc(N)c34)[nH]c12 [OSI-027] (partner 0.5 µM)
Outline: as §1

| Cell Line | relative viability (XMD13-2 + OSI-027; first compound 0.05 µM) | relative viability (XMD13-2 + OSI-027; first compound 0.1581 µM) | relative viability (XMD13-2 + OSI-027; first compound 0.5 µM) | relative viability (XMD13-2 + OSI-027; first compound 1.581 µM) | relative viability (XMD13-2 + OSI-027; first compound 5 µM) | relative viability (XMD13-2 + Decitabine; first compound 0.05 µM) | relative viability (XMD13-2 + Decitabine; first compound 0.1581 µM) | relative viability (XMD13-2 + Decitabine; first compound 0.5 µM) | relative viability (XMD13-2 + Decitabine; first compound 1.581 µM) | relative viability (XMD13-2 + Decitabine; first compound 5 µM) | relative viability (ALW-II-49-7 + Pemetrexed; first compound 0.08 µM) | relative viability (ALW-II-49-7 + Pemetrexed; first compound 0.253 µM) | relative viability (ALW-II-49-7 + Pemetrexed; first compound 0.8 µM) | relative viability (ALW-II-49-7 + Pemetrexed; first compound 2.53 µM) | relative viability (ALW-II-49-7 + Pemetrexed; first compound 8 µM) | relative viability (Dasatinib + OSI-027; first compound 0.005 µM) | relative viability (Dasatinib + OSI-027; first compound 0.01581 µM) | relative viability (Dasatinib + OSI-027; first compound 0.05 µM) | relative viability (Dasatinib + OSI-027; first compound 0.1581 µM) | relative viability (Dasatinib + OSI-027; first compound 0.5 µM) |
| --- | --- | --- | --- | --- | --- | --- | --- | --- | --- | --- | --- | --- | --- | --- | --- | --- | --- | --- | --- | --- |
| NCI-H1355 | 0.48 | 0.413 | 0.394 | 0.382 | 0.387 | 0.358 | 0.385 | 0.386 | 0.379 | 0.375 | 0.964 | 1.13 | 1.01 | 1.04 | 1.07 | 0.434 | 0.291 | 0.287 | 0.272 | 0.271 |
| SK-LU-1 | 0.382 | 0.375 | 0.426 | 0.311 | 0.389 | 0.569 | 0.601 | 0.746 | 0.616 | 0.628 | 0.992 | 1.08 | 1.04 | 0.834 | 0.569 | 0.271 | 0.167 | 0.167 | 0.14 | 0.152 |
| NCI-H2170 | 0.748 | 0.703 | 0.744 | 0.559 | 0.704 | 0.507 | 0.466 | 0.506 | 0.459 | 0.43 | 0.283 | 0.275 | 0.244 | 0.302 | 0.285 | 0.71 | 0.635 | 0.711 | 0.568 | 0.323 |
| NCI-H2347 | 0.394 | 0.455 | 0.426 | 0.444 | 0.413 | 0.599 | 0.565 | 0.652 | 0.566 | 0.65 | 0.438 | 0.441 | 0.417 | 0.509 | 0.377 | 0.233 | 0.242 | 0.269 | 0.234 | 0.218 |
| A-427 | 0.462 | 0.354 | 0.489 | 0.444 | 0.355 | 0.574 | 0.553 | 0.612 |  | 0.503 | 0.982 | 1.11 | 0.926 | 1.02 | 1.06 | 0.464 | 0.338 | 0.411 | 0.342 | 0.37 |
| HCC-366 | 1.02 | 0.598 | 1.15 | 0.888 | 0.983 | 0.332 | 0.34 | 0.33 | 0.341 | 0.378 | 0.195 | 0.188 | 0.155 | 0.195 | 0.131 | 0.662 | 0.338 | 0.365 | 0.375 | 0.243 |
| HCC-78 | 0.432 | 0.394 | 0.317 | 0.38 | 0.345 | 0.691 | 0.737 | 0.664 | 0.613 | 0.61 | 0.888 | 0.846 | 0.91 | 0.884 | 0.891 | 0.317 | 0.361 | 0.267 | 0.326 | 0.257 |
| PC-14 | 1.04 | 0.832 | 0.98 | 0.842 | 0.971 | 0.239 | 0.229 | 0.188 | 0.193 | 0.254 | 0.15 | 0.165 | 0.13 | 0.138 | 0.113 | 0.99 | 0.772 | 0.679 | 0.384 | 0.0679 |
